# Measurements from patent US6897319B2, “Useful aroyl pyrrole heteroaryl methanones and methanols” (Ortho-McNeil Pharmaceutical, Inc., priority 2001, dated 2005).
# What was measured:
# [1] = test system: voltage-gated sodium channels; test: [14C]guanidinium flux assay in SK-N-SH cells (veratridine stimulus); assay type: cell-based; conditions: 10 μM compound, 100 μM veratridine
# Description: Screening Assay for Voltage-Gated Sodium Channel Antagonists [^14C] Guanidinium Flux Assay
# SK-N-SH neuroblastoma cells were maintained in a propagation medium containing modified Eagle's medium and 10% (v/v) fetal bovine serum and were incubated at 37° C. in a 5% CO2 atmosphere. Only cells with fewer than 20 passages were used in each assay. All drugs were prepared in DMSO, and the final concentration of solvent was less than 0.1% (v/v). Veratridine, a toxin that selectively promotes persistent activation of voltage-gated sodium channels, served as the stimulus.
# SK-N-SH cells were plated at 1×10^5 cells/well in 96-well Cytostar-T microscintillating plates in propagation medium and experiments were performed 6-7 days after plating. Prior to assay, the SK-N-SH cells were washed twice with assay buffer containing 50 mM HEPES (pH 7.45), 5.4 mM potassium chloride, 0.8 mM magnesium chloride, 130 mM choline chloride, 5.5 mM glucose and 0.1 mg/mL bovine serum albumin. Next, the plates were allowed to equilibrate for 10 min at 37° C. in assay buffer. After this incubation period, the cells were stimulated with 100 μM veratridine in the presence or absence of investigational compounds prepared in a 96-well plate (prepared at a final concentration of 10 μM in DMSO). The 96-well dosing plate was prepared by mixing 25 μL of a drug/assay buffer solution per well with 25 μL of 0.7 μCi/mL [^14C]guanidine hydrochloride in assay buffer. 50 μL aliquots from the dosing plate were then added to the cells. One sample containing 100 μM veratridine and 10 μM tetrodotoxin accounted for nonspecific activity. The plates were incubated for 1 hr at room temperature and the radioactivity was counted in a 1450 Microbeta scintillation counter.
# [2] = test system: maximal electroshock extensor seizure; test: Mouse maximal electroshock test (MES) anticonvulsant model; assay type: in vivo; conditions: po, orally administered, read-out: MES Response ED50
# Description: Procedure for Testing in Mouse Anticonvulsant Model
# The activity of the present compounds as anticonvulsant agents was determined using a standard mouse “maximal electroshock test” (MES). In this test, activity was indicated by a block of the […] extensor seizure, as described by Swinyard, et al. (J. Pharmacol. Exptl. Therap., 1952, 106, 319). A more recent description of current anticonvulsant drug screening is given in Swinyard, et al., in Epilepsia, 1978, 19, 409.
# The anticonvulsant activity of the instant compounds is shown in Table 5 and was evaluated according to the Swinyard (1952) method. The abbreviations used in the table have the following meanings: mpk refers to the dose orally administered in “mg per Kg;” and, ED50 refers to the “50% Effective Dose” orally administered in mpk. The values marked by an * represent the number of mice protected/number of mice tested; therefore, a value of 3/3 represents that the number of mice protected matched the number of mice tested at the indicated dose.
# [3] = test system: mechanical allodynia after L5 spinal nerve ligation; test: Chung Model (spinal nerve ligation) antiallodynic effect; assay type: in vivo; conditions: po; rat, orally administered
# Source text: Procedure for Testing Antiallodynic Effect
# The procedure used to detect the antiallodynic effect of a compound of the present invention for which there is a good correlation with human efficacy for the treatment of pain is the procedure for the measurement of allodynia found in the Chung Model (Kim S. H. and Chung J. M., An Experimental Model for Peripheral Neuropathy Produced by Segmental Spinal Nerve Ligation in the Rat, Pain, 1992, 50, 355-363). The antiallodynic effect of the composition of the present invention in the Chung Model is expressed in % MPE (Maximum Possible Effect).
# Male Sprague-Dawley rats, weighing approximately 200 g each were anesthetized with isoflurane. The spinal nerve at the level of L5 was exposed through an incision just left of the dorsal midline and tightly ligated with 6-0 silk. At various times after surgery, animals were tested for mechanical allodynia with von Frey hairs (monofilaments which are calibrated to bend under a certain amount of pressure, ranging from 0.41 to 15.1 g). In order to calculate a paw withdrawal threshold (PWT), tactile allodynia was measured by recording the pressure at which the affected paw was withdrawn from graded stimuli according to the procedure of S. R. Chaplan, J. W. Pogrel, T. L. Yaksh, Role of Voltage-Dependent Calcium Channel Subtypes in Experimental Tactile Allodynia, J. Pharmacol. Exp. Ther., 1994, 269, 1117-1123. Normal rats can withstand at least 15 g of pressure without responding. Operated rats, however, can respond to as little as 0.25 g of pressure. The surgery was deemed successful if the animal responded with a PWT of less than 4 g of pressure applied to the affected paw. […] The PWT was used to calculate the % maximal possible effect (% MPE) according to the formula: %MPE=100×[(PWT−CT)/(CO−CT)]; wherein PWT is defined as Paw Withdrawal Threshold, CT is Control Threshold, and CO is Cut Off (defined as 15 g).
# The sham operation consisted of a similar surgery; the spinal nerve was visualized without being ligated.
# Compounds selected from Formula (I) and Formula (II) were tested for activity in treating or modulating neuropathic pain by being dissolved or suspended in either water or hydroxypropyl methylcellulose, respectively. Postoperative animals between 14 to 42 days were fasted overnight prior to dosing. Animals were orally dosed and dosage volumes were calculated on a 4 mL/kg basis.
# [4] = test system: carrageenan-induced paw swelling; test: Carrageenan Paw Edema Model; assay type: in vivo; conditions: rat, 100 mg/kg p.o., 2 hours post carrageenan administration
# Source text: Procedure for Testing Antiinflammatory Response
# The procedure used to detect the antiinflammatory activity of a compound of the present invention for which there is a good correlation with human efficacy is the Carrageenan Paw Edema Model (as described in Levy, L., Carrageenan Paw Edema in the Mouse, Life Sci., 1969, 8, 11, 601-6).
# Male, Sprague-Dawley rats (Charles River Laboratories) 175-200 g are housed in a climate-controlled, virus free environment for at least 5 days prior to testing.
# Carrageenan is prepared in saline (0.5% carrageenan solution in 0.9% saline) and injected in a 0.1 mL volume into the footpad of the rat. Test compound is administered orally by gavage 30-60 minutes prior to footpad challenge. Paws are dipped into a mercury plethysmograph edema computer (Buxco Electronics) and the foot displacement is recorded at 0 time and at various times after challenge with carrageenan. Rats treated with test compound are compared to vehicle controls for any inhibition of carrageenan induced paw swelling.
# The % Inhibition (% I) by a compound tested was calculated according to the formula: %I=100−[100×(TCPV/VCPV)]; wherein TCPV is defined as the mean Change in Paw Volume in the Treated group and VCPV is the mean Change in Paw Volume in the Vehicle group.
structure (smiles),measurement,setting,value
"Cn1cc(C(=O)c2ccncc2)cc1C(=O)c1ccc(Cl)cc1 [Cpd 1, [5-(4-Chlorobenzoyl)-1-methyl-1H-pyrrol-3-yl]pyridin-4-ylmethanone]",% GFI at 10 μM (% guanidinium flux inhibition),[1],23%
same,ED50,[2],157 mg/kg
same,ED50,[3],22 mg/kg
same,% inhibition of carrageenan-induced paw swelling,[4],35%
